# Data from US20260335323A1, “CHIMERIC MOLECULE” (UCL Business Ltd, priority 2023, published 2026).
# Legend:
# Mfn2 = assay: Western blot, Mfn2 degradation in MEF WT; type: cell-based, mouse; conditions: MEF WT
# Method: (§1) FIG. 6. ULKTACs rely on ULK1 for the redirection of autophagy components to mitochondria and subsequent mitophagic degradation (A) Western blot of mouse embryonic fibroblasts (MEF) WT and MEF ULK1/2^−/− treated with 1 mM ULKTACs, 5 mM CCCP or both and probed for ULK1, Mfn2 and Actin—quantification of the relative intensity of Mfn2 shown in (B), normalised to Actin. Representative immunofluorescence of MEF WT (C) and MEF ULK1/2^−/− (D) treated with 5 mM CCCP, 1 mM ULKTACs or both and immunostained for Alexa 488 ATP5a and Alexa 647 LC3B. Quantification of the colocalised LC3 to ATP5a spot area shown in WT vs ULK1/2^−/− treated MEF cells shown in (E). Data shown are mean±SEM, n=3, *p<0.05, ** p<0.01, *** p<0.001, Two-way ANOVA with Tukey's multiple comparisons test.
# Cells were homogenised in protein lysis buffer consisting of 0.1 M Tris pH 8.0, 0.1 M NaCl, 5% glycerol, IGEPAL® CA-630 (#18896. Sigma-Aldrich) and 5 mM EDTA, 0.1 M N-ethyl maleimide (ThermoFisher, #23030) and protease inhibitor (Cell Signalling Technologies, #5871). Protein concentrations were determined using the BCA assay to ensure equal loading. […] The membranes were immunoblotted with primary antibodies, overnight at 4° C. ULK1 (D8H5) Rabbit mAb (#0854) [1:1000], Phospho-ULK1 (Ser 317) Rabbit antibody (#37762) [1:1000], LC3B Rabbit antibody (#2775) [1:1000], TOM20 (D8T4N) Rabbit mAb (#42406) [1:1000] and, Phospho-Ubiquitin (Ser 65) (E2J6T) Rabbit mAb (#62082) [1:500] were obtained from Cell Signalling Technologies. Recombinant Anti-Vinculin Rabbit antibody (EPR8185) (#ab129002) [1:5000] and Anti-Mitofusin2 mouse antibody (6A8) (#ab56889) [1:1000] were purchased from Abcam. Anti-Actin mouse monoclonal antibody (#A1978) [1:1000] and Anti-rabbit p62/SQSTM1 (#P0067) [1:1000], were purchased from Sigma-Aldrich. Mono- and polyubiquitinylated conjugates monoclonal antibody (FK2) (BML-PW8810-0100) [1:500] was purchased from Enzo Life Sciences. Anti BRD4 (E2A7X) rabbit monoclonal antibody (#13440), Anti c-MYC (D84C12) rabbit monoclonal antibody (#5605) [1:1000], Anti GAPDH (D4C6R) mouse monoclonal antibody (#97166) [1:1000], Anti Max (S20) rabbit monoclonal antibody (#4739) [1:1000] were purchased from Cell Signalling Technologies. Anti Phospho-CHK1 (Ser 345) rabbit monoclonal antibody (#2341) [1:1000], Anti gamma-H2AX (Ser 139) rabbit monoclonal antibody (#2577) [1:1000] were obtained from Cell Signalling Technologies, Anti RPA32/RPA2 (phospho S4/S8) rabbit monoclonal antibody (ab87277) [1:1000] were obtained from Abcam.
# Membranes were then incubated with horseradish peroxidase (HRP)-conjugated secondary antibodies (Rabbit #7074 and Mouse #7076) purchased from Cell Signalling Technologies for 1 hour and the HRP signal was detected using EZ-ECL Enhanced Chemiluminescence Detection Kit for HRP (#20-500-500, Sartorius), and imaged with an Alliance Q9 Advanced (UVITec). Where required, membranes were stripped with mild stripping buffer consisting of 0.2 M glycine, 3.47 mM SDS, 1% Tween 20, pH 2.2, blocked for 1 hour with TBS-T+3% BSA and re-probed with primary antibodies.
# Therefore, we conclude that NZ-65 and NZ-66 are novel ULKTAC molecules that initiate the recruitment of ULK1 to mitochondria, leading to an increase in local ULK1 activity, the formation of an autophagosome and mitophagy.
# LC3 = assay: ATP5a/LC3 co-localisation immunofluorescence in MEF ULK1/2-/-; type: cell-based, mouse; conditions: ULK1/2-/- cells
# Method: as §1
# For TOM20/ULK1 immunofluorescence, cells were seeded in a 384 well PerkinElmer CellCarrier Ultra plate 24 hours prior to treatment with compounds. Cells were treated for 18 hours after which they were fixed with 4% paraformaldehyde (PFA) in phosphate buffered saline (PBS) and blocked with 10% FBS and 0.1% Triton in PBS. Plates were incubated at 4° C. overnight, with 1:400 mouse anti-TOM20 (Santa Cruz, #sc-17764) and 1:400 rabbit anti-ULK1 (Cell Signalling Technologies, #0854). […]
# A549 cells = assay: Cell viability assay (CellTiter Glo), A549; type: cell-based, human; conditions: A549, increasing concentrations
# Method: A549 and H1299 cells were seeded in OptiPlate-384 well plates and treated with increasing concentrations of (+)-JQ1 or NZ-147 from 0 μM to 10 µM in Example 8 and with increasing concentrations of NZ-175 from 0 µM to 10 µM in Example 9. Cells were treated for 120 h before using the luciferase based CellTiter Glo assay (Promega) to measure cell viability.
# Cell viability assay was performed in A549 and H1299 cells, which were treated with different concentrations of (+)-JQ1 or NZ-147 at 100 nM for 72 hours (FIG. 10B).
# Cell viability assay was performed in A549 and H1299 cells, which were treated with different concentrations of NZ-147 at 100 nM for 72 hours (FIG. 16B).
smiles,measurement,setting,value
"O=C(Nc1cc(C(F)(F)F)cc(C(F)(F)F)c1)N[C@@H](C(=O)Nc1ccc(F)cc1F)c1ccc(OCc2cn(CCCCCCNC(=O)C(=O)c3c(-c4ccccc4)[nH]c4ccccc34)nn2)cc1 [NZ-66, (R)-2-(3-(3,5-bis(trifluoromethyl)phenyl)ureido)-N-(2,4-difluorophenyl)-2-(4-((1-(6-(2-oxo-2-(2-phenyl-1H-indol-3-yl)acetamido)hexyl)-1H-1,2,3-triazol-4-yl)methoxy)phenyl) acetamide]",degradation of Mfn2,Mfn2; co-treatment with CCCP,further enhanced by co-treatment with CCCP
same,degradation of Mfn2,Mfn2; compound alone,degradation of Mfn2
same,co-localisation of ATP5a with LC3,LC3,absent
"Cc1sc2c(c1C)C(c1ccc(Cl)cc1)=N[C@@H](CC(=O)NCCOCCOCCOCCn1cc(COc3ccc([C@@H](NC(=O)Nc4cc(C(F)(F)F)cc(C(F)(F)F)c4)C(=O)Nc4ccc(F)cc4F)cc3)nn1)c1nnc(C)n1-2 [NZ-147, (R)-2-(3-(3,5-bis(trifluoromethyl)phenyl)ureido)-2-(4-((1-(1-((S)-4-(4-chlorophenyl)-2,3,9-trimethyl-6H-thieno[3,2-f][1,2,4]triazolo[4,3-a][1,4]diazepin-6-yl)-2-oxo-6,9, 12-trioxa-3-azatetradecan-14-yl)-1H-1,2,3-triazol-4-yl)methoxy)phenyl)-N-(2,4-difluorophenyl) acetamide]",percentage of live cells,A549 cells,dose-dependent decrease in the percentage of live cells
"O=C(Nc1cc(C(F)(F)F)cc(C(F)(F)F)c1)N[C@@H](C(=O)Nc1ccc(F)cc1F)c1ccc(OCc2cn(CCOCCOCCNC(=O)C(=O)c3c(-c4ccccc4)[nH]c4ccccc34)nn2)cc1 [NZ-65, (R)-2-(3-(3,5-bis(trifluoromethyl)phenyl)ureido)-N-(2,4-difluorophenyl)-2-(4-((1-(2-(2-(2-(2-oxo-2-(2-phenyl-1H-indol-3-yl)acetamido)ethoxy)ethoxy)ethyl)-1H-1,2,3-triazol-4-yl)methoxy)phenyl) acetamide]",degradation of Mfn2,Mfn2; co-treatment with CCCP,further enhanced by co-treatment with CCCP
same,degradation of Mfn2,Mfn2; compound alone,degradation of Mfn2
same,co-localisation of ATP5a with LC3,LC3,absent
